Measurements from patent US8759033B2, “CSNR-deficient actinobacteria for the production of an enzyme having chitosanase activity” (Socpra Sciences et Genie S.E.C., priority 2012, dated 2014).

Assays:
CsnR [1] = biological target: T1, CsnR (Streptomyces lividans, UniProt A0ABN4DYL3); assay: EMSA sugar binding assay: interference with CsnR binding to csnA-WT operator; settings: for effect on CsnR binding to operator (summary statement): equilibrium competition experiment and IC50 determination; for effect on gel shift pattern of CsnR with csnA-WT operator: saccharide at 500 nM, FIG. 9; for interference with CsnR binding to the csnA-WT probe: maximal tested concentration of 75 mM
Description: For the electrophoretic mobility shift assay (EMSA), pairs of complementary oligonucleotides were annealed, generating double-stranded oligonucleotides csnA-WT (wild type), csnA-M1, csnA-M2, csnA-MM, and csnR-WT (see Table 3). Fifty picomoles of double-stranded oligonucleotide was end labeled with ^[γ-32P]ATP (3,000 Ci/mmol) and 20 U of T4 polynucleotide kinase and purified on a G-25 column. DNA binding reaction mixtures (24 μl) contained 10 mM HEPES (pH 7.9), 10% glycerol, 0.2 mM EDTA, 0.5 mM phenylmethylsulfonyl fluoride (PMSF), 0.25 mM DTT, 1 μg poly(dI-dC), and 150 mM KCl. For equilibrium dissociation constant (KD) determination, various concentrations of labeled csnA-WT or csnR-WT probe (0.1 nM to 1.5 nM) and ˜8.5 pmol of purified CsnR were used. For the determination of the 50% inhibitory concentration (IC50) of the DNA competitors, 0.03 nM labeled csnA-WT probe and ˜8.5 pmol of CsnR were used with various concentrations of competitor double-stranded oligonucleotide (0.1 to 125 nM). For the sugar binding assay, ˜8.5 pmol of CsnR was preincubated with glucose, GlcNAc, galactosamine, GlcN, or chitosan oligosaccharides (GlcN)2 to ([…]) in the binding reaction mixture for 15 min on ice before the addition of labeled csnA-WT probe (0.03 nM). Reaction mixtures were incubated at room temperature for 15 min with the labeled probe and then subjected to electrophoresis at 4° C. in a prerun gel (15 min) of 6% polyacrylamide (10 mM Tris, 80 mM glycine, 0.4 mM EDTA [pH 8.3]). Following electrophoresis, gels were dried, and band intensities were visualized with a Phosphorlmager™ and estimated with ImageQuant™ software (version 5.2). All determinations were done in triplicate. KD calculations were done with the Michaelis-Menten nonlinear fit (least squares), and the one-site log IC50 nonlinear fit (least squares) was used for IC50 calculations (GraphPad Prism™ version 5.03 for Windows; GraphPad, San Diego, Calif.).

CsnR [2] = biological target: T1, CsnR; assay: EMSA equilibrium competition with DNA competitors against labeled csnA-WT probe; settings: competitor double-stranded oligonucleotide 0.1 to 125 nM, 0.03 nM labeled csnA-WT probe, ~8.5 pmol CsnR, three independent experiments; read-out: IC50 (nM), effect of mutations in the operator sequence on CsnR binding
Description: For the electrophoretic mobility shift assay (EMSA), pairs of complementary oligonucleotides were annealed, generating double-stranded oligonucleotides csnA-WT (wild type), csnA-M1, csnA-M2, csnA-MM, and csnR-WT (see Table 3). Fifty picomoles of double-stranded oligonucleotide was end labeled with ^[γ-32P]ATP (3,000 Ci/mmol) and 20 U of T4 polynucleotide kinase and purified on a G-25 column. DNA binding reaction mixtures (24 μl) contained 10 mM HEPES (pH 7.9), 10% glycerol, 0.2 mM EDTA, 0.5 mM phenylmethylsulfonyl fluoride (PMSF), 0.25 mM DTT, 1 μg poly(dI-dC), and 150 mM KCl. For equilibrium dissociation constant (KD) determination, various concentrations of labeled csnA-WT or csnR-WT probe (0.1 nM to 1.5 nM) and ˜8.5 pmol of purified CsnR were used. For the determination of the 50% inhibitory concentration (IC50) of the DNA competitors, 0.03 nM labeled csnA-WT probe and ˜8.5 pmol of CsnR were used with various concentrations of competitor double-stranded oligonucleotide (0.1 to 125 nM). For the sugar binding assay, ˜8.5 pmol of CsnR was preincubated with glucose, GlcNAc, galactosamine, GlcN, or chitosan oligosaccharides (GlcN)2 to (GlcN)5 at various concentrations (0.00075 to 75 mM) in the binding reaction mixture for 15 min on ice before the addition of labeled csnA-WT probe (0.03 nM). Reaction mixtures were incubated at room temperature for 15 min with the labeled probe and then subjected to electrophoresis at 4° C. in a prerun gel (15 min) of 6% polyacrylamide (10 mM Tris, 80 mM glycine, 0.4 mM EDTA [pH 8.3]). Following electrophoresis, gels were dried, and band intensities were visualized with a Phosphorlmager™ and estimated with ImageQuant™ software (version 5.2). All determinations were done in triplicate. KD calculations were done with the Michaelis-Menten nonlinear fit (least squares), and the one-site log IC50 nonlinear fit (least squares) was used for IC50 calculations (GraphPad Prism™ version 5.03 for Windows; GraphPad, San Diego, Calif.).

T1 sequence (A0ABN4DYL3 entry or part of it): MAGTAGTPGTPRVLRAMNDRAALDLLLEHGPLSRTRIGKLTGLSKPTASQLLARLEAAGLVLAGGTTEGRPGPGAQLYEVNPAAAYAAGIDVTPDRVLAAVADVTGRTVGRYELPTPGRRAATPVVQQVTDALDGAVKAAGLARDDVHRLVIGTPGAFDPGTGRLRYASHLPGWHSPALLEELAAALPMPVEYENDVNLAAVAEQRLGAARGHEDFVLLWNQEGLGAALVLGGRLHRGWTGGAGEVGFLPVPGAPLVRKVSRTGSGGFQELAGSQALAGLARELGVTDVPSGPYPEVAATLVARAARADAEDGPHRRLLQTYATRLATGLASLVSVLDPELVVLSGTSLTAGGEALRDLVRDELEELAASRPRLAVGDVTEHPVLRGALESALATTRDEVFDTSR

Row | Compound | effect on CsnR binding to operator (summary statement) (CsnR [1]) | effect on gel shift pattern of CsnR with csnA-WT operator (CsnR [1]) | interference with CsnR binding to the csnA-WT probe (CsnR [1]) | effect on CsnR binding to operator (summary statement) (CsnR [1]; listed as (GlcN)2) | IC50 (CsnR [2]) [nM]
1 | N[C@H]1C(O)O[C@H](CO)[C@@H](O)[C@@H]1O (stereo partly drawn) [GlcN, D-glucosamine] | impaired | strongly affected | – | – | –
2 | CC(=O)N[C@H]1C(O)O[C@H](CO)[C@@H](O)[C@@H]1O (stereo partly drawn) [GlcNAc, N-acetyl-D-glucosamine] | no effect | no effect | do not interfere | – | –
3 | NC1C(OC2C(CO)OC(O)C(N)C2O)OC(CO)C(O)C1O (stereo not drawn) [chitosan dimer] | best effector | strongly affected | – | preferential CsnR ligand molecule | –
4 | NC1C(OC2C(CO)OC(OC3C(CO)OC(OC4C(CO)OC(OC5C(CO)OC(O)C(N)C5O)C(N)C4O)C(N)C3O)C(N)C2O)OC(CO)C(O)C1O (stereo not drawn) [chitosan pentamer] | – | strongly affected | – | – | –
5 | N[C@H]1C(O)O[C@H](CO)[C@H](O)[C@@H]1O (stereo partly drawn) [galactosamine] | no effect | – | do not interfere | – | –
6 | O=C[C@H](O)[C@@H](O)[C@H](O)[C@H](O)CO [glucose] | no effect | no effect | do not interfere | – | –
7 | csnA-M1: double-stranded oligonucleotide, csnA operator mutated at position +2, SEQ ID NO: 43 (DNA CCTCTTCTGGTAGGAAACTGTCCTATCAGT; double-stranded, further chemistry not given here) | – | – | – | – | 52.1
8 | csnA-M2: double-stranded oligonucleotide, csnA operator mutated at position +6, SEQ ID NO: 44 (DNA CCTCTTCTGGTAGGAAACTTTCCGATCAGT; double-stranded, further chemistry not given here) | – | – | – | – | 2.7
9 | csnA-MM: double-stranded oligonucleotide, csnA operator doubly mutated at +2 and +6, SEQ ID NO: 45 (CCTCTTCTGGTAGGAAACTGTCCGATCAGT; double-stranded, further chemistry not given here) | – | – | – | – | 105
10 | csnA-WT: double-stranded oligonucleotide, wild-type csnA operator, SEQ ID NO: 42 (CCTCTTCTGGTAGGAAACTTTCCTATCAGT; double-stranded, further chemistry not given here) | – | – | – | – | 1.3
